The source of these data is patent US20260042772A1, “FURO PYRIMIDINE DERIVATES” (Merck Patent GmbH, priority 2022, published 2026).

Read-outs that look alike come from different tables or passages of the source.

Assay [1] deals with sensitive (NF54) strains of P. falciparum. The experiment in a line: In vitro P. falciparum assay, modified [3H]hypoxanthine incorporation assay. It is filed as cell-based. The settings on record: Plasmodium falciparum, NF54 strain. The text has this:
Compounds according to the present invention were screened against sensitive (NF54) strains of P. falciparum in vitro using the modified [3H]hypoxanthine incorporation assay. (Vennerstrom, J. L.; Arbe-Barnes, S.; Brun, R.; Charman, S. A.; Chiu, F. C. K.; Chollet, J.; Dong, Y.; Dorn, A.; Hunziker, D.; Matile, H.; McIntosh, K.; Padmanilayam, M.; Tomas, J. S.; Scheurer, C.; Scorneaux, B.; Tang, Y.; Urwyler, H.; Wittlin, S. and Charman, W. N. Identification of an Antimalarial Synthetic Trioxolane Drug Development Candidate. Nature, 2004, 430, 900-904.).
Compound concentrations at which growth of P. falciparum was inhibited by 50% compared to untreated controls was measured in nM (IC50).
Compound concentrations at which growth of P. falciparum was inhibited by 50% compared to untreated controls was measured in nM (IC50) as described above (PfNF54 IC50 (nM)).

For the next assay, the target named is human PI4Kβ (HuPI4Kβ) (Homo sapiens (Human), UniProt Q9UBF8). The experiment in a line: HuPI4Kβ lipid kinase inhibition, ADP-Glo Kinase Assay. The class given is biochemical. The conditions noted are these: recombinant enzyme. On the procedure: To further test the impact of compounds according to the present invention on human PI4Kβ, HuP[…]β inhibition was tested for selected compounds and contrasted with the results for inhibiting PfNF54 strains as described in the example above. The lipid kinase reaction is performed by incubating lipid substrate (PI:3PS or PIP2:3PS) with a recombinant enzyme and ATP, and the kinase activity is measured using the ADP-GloTM Kinase Assay. First, the kinase reaction is terminated, and any ATP remaining after the reaction is depleted, leaving only ADP. Then the Kinase Detection Reagent is added to convert ADP to ATP, which is used in a coupled luciferin/luciferase reaction. The luminescent output is measured and is correlated with kinase activity. The assays can be performed in 96- or 384-well plates and can be used for enzyme characterization, inhibitor screening or compound profiling. Results measuring the effect of compounds on HuP[…]β are reported in table 2 in nM (IC50) describing the concentration necessary to inhibit 50% of the enzyme's activity (HuP[…]β IC50 (nM)).
human PI4Kβ (HuPI4Kβ), sequence (Q9UBF8 whole entry): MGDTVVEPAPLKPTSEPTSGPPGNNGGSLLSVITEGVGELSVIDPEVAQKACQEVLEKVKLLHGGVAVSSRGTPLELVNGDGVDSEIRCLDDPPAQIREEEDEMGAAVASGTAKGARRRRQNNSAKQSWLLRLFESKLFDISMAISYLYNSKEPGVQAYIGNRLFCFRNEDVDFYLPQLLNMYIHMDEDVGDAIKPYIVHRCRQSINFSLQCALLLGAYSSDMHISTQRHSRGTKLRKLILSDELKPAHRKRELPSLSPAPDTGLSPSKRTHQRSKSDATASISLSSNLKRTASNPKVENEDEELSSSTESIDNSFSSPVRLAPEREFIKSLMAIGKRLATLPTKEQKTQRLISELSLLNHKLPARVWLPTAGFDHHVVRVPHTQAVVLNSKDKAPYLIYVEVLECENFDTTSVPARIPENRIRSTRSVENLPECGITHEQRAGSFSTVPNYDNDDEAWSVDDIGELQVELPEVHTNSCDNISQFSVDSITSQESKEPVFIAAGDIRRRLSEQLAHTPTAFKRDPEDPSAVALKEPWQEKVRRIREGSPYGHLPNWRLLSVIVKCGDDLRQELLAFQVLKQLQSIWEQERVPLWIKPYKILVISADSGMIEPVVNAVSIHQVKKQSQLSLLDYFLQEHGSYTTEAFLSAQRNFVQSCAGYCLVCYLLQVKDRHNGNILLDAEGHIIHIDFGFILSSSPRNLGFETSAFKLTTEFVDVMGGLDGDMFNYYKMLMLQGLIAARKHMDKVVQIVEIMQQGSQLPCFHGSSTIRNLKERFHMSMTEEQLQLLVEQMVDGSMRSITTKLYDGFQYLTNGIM
On the technique in general: ADP-Glo first removes unused ATP, then detects ADP through luciferase.

The subject of assay [2] is chloroquine sensitive (CQS) strain (NF54) of P. falciparum. In words: In vitro antiplasmodial activity, Assay A (parasite lactate dehydrogenase assay). The class given is cell-based. The conditions noted are these: Plasmodium falciparum. In short, it runs like this: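 Asexual erythrocytic-stage cultures of the CQ-sensitive NF54 strain tested in triplicate on two occasions. Ten 2-fold dilutions from 3000 nM down to about 6 nM (references from 1000 ng/mL). Viability read by parasite lactate dehydrogenase assay.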

In assay [3] the test system is CQC sensitive strain (NF54) of P. falciparum. The experiment in a line: In vitro antiplasmodial activity, Assay B (as described by Vennerstrom et al. 2004). The settings on record: Plasmodium falciparum; NF54, Vennerstrom et al. method. The class given is cell-based. The procedure, abridged:
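NF54 P. falciparum is exposed to 10-point, 2-fold serial dilutions in complete medium starting at 3000 nM (lowest about 6 nM). Reference drugs start at 1000 ng/mL.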

In assay [4] the test system is P. vivax liver-stage hypnozoites. The experiment in a line: In vitro P. vivax liver-stage assay in primary human hepatocytes, radical cure mode: hypnozoites. The class given is cell-based. The conditions noted are these: Plasmodium vivax, Hepatocyte, infected primary human hepatocytes, read-out: Pv Hypnozoite IC50. On the procedure: (§1) Compound efficacy against P. vivax liver-stage schizonts and hypnozoites is evaluated in infected primary human hepatocytes (PHHs). Compound screening is performed in 384-well plates, in a 12-point dose response, from 50 μM. All compounds are tested in radical cure mode (RCM). PHHs are seeded onto 384-well plates two days prior to P. vivax sporozoite infection. In RCM, compounds are added to the culture for three days, from day 5 post infection, in duplicate wells. Nigericin and a PI4K inhibitor (KDU691) are used as positive controls in each assay, while solvent (DMSO) without added compound serves as a negative control. Daily medium changes are performed, and the culture is fixed on day twelve post infection to ensure complete parasite clearance. Fixed cells are permeabilized and stained with an anti-UIS4 primary antibody and a fluorescent secondary antibody. Liver-stage schizonts and hypnozoites are then quantified by High Content Imaging. Roth, A., et al. A comprehensive model for assessment of liver stage therapies targeting Plasmodium vivax and Plasmodium falciparum. Nat. Commun. 2018, 9(1), 1837. doi.org/10.1038/s41467-018-04221-9.

The subject of assay [5] is P. vivax liver-stage schizonts. The experiment in a line: In vitro P. vivax liver-stage assay in primary human hepatocytes, radical cure mode: schizonts. The conditions noted are these: Plasmodium vivax, Hepatocyte, infected primary human hepatocytes, read-out: Pv Schizont IC50. The class given is cell-based. The procedure:
as §1

Setting [6] is: [3H]hypoxanthine incorporation, read-out: In vitro P. falciparum growth inhibition IC50.
The mark [7] stands for this setting: growth inhibition, Table 2, read-out: PfNF54 IC50.

By IC50 is commonly meant the concentration at which inhibition is half-maximal. With `CC(C)(O)c1cccc(-c2ncnc3cc(-c4ccc(S(C)(=O)=O)cc4)oc23)c1F` [Compound D149, 2-(2-fluoro-3-(6-(4-(methylsulfonyl)phenyl)furo [3,2-d]pyrimidin-4-yl)phenyl)propan-2-ol], the IC50 in assay [1] (setting [6]) is below 0.01 µM; in assay [1] (setting [7]), below 0.01 µM; at human PI4Kβ (HuPI4Kβ) it was 0.1 to 0.5 µM; in assay [2] it was below 0.015 µM; in assay [3], below 0.015 µM; in assay [4], below 0.015 µM. For the same compound, the IC50 in assay [5] is below 0.015 µM.

With `CC(C)(O)c1cccc(-c2ncnc3cc(-c4ccc(C(=O)N5CCOCC5)cc4)oc23)c1F` [Compound D183, (4-(4-(2-fluoro-3-(2-hydroxypropan-2-yl)phenyl)furo[3,2-d]pyrimidin-6-yl)phenyl)(morpholino) methanone], the IC50 is below 0.01 µM in assay [1] (setting [6]); below 0.01 µM in assay [1] (setting [7]); 0.1 to 0.5 µM on human PI4Kβ (HuPI4Kβ); below 0.015 µM in assay [2]; below 0.015 µM in assay [3]; below 0.015 µM in assay [4]. In addition, in assay [5], the IC50 was below 0.015 µM.

As for `CC(C)(O)c1cccc(-c2ncnc3cc(-c4ccc(S(C)(=N)=O)cc4)oc23)c1F` (stereo not shown) [Compound D203, (4-(4-(2-fluoro-3-(2-hydroxypropan-2-yl)phenyl)furo[3,2-d]pyrimidin-6-yl)phenyl)(imino)(methyl)-λ6-sulfanone], the IC50 in assay [1] (setting [6]) was below 0.01 µM; in assay [2], below 0.015 µM; in assay [3], below 0.015 µM; in assay [4], 0.015 to 0.05 µM; in assay [5], below 0.015 µM.
